In patent US4748185A, “4-hydroxycoumarin derivatives” (priority 1985, dated 1988):
Where two headings read alike, the source gives them in different places.

Assays:
prothrombin time = assay: Anticoagulant activity by measurement of the prothrombin time (3-day ED50, intraperitoneal, modified one-step method of Quick); assay type: in vivo, Wistar-strain male rats; details: Rattus norvegicus, S100, ip, 72 h, read-out: 3-day ED50
Experimental: Anticoagulant activity of the compounds of Examples 1 to 11 was determined by measurement of the prothrombin time, which is a measure of blood-clotting properties and is a reliable indicator of efficacy for an anticoagulant rodenticide. The procedure for measurement of prothrombin time is based on Quick et al, Am. J. Med. Sci., 190, 501 to 511, 1935.
Prothrombin times were determined according to the following specific procedures. Test compounds were dissolved in a mixture of polyethylene glycol 200 (i.e. polyethylene glycol of average molar mass 200) and triethanolamine (9:1 w/w) and serially diluted with the same solvent system to give concentrations of; 5.0, 2.5, 1.0, 0.9, 0.8, 0.7, 0.6, 0.5, 0.45, 0.40, 0.35, 0.30, 0.25, 0.2 and 0.1 milligrammes per milliliter (mgml^-1).
As these concentrations represent a known number of milligrammes per milliliter administration of any solution to the test animal at the rate of 1 milliliter per 1 kilogramme of bodyweight (eg. a 250 g rat is administered 0.25 ml) delivers a dose (in mg kg^-1) numerically equivalent to the concentration of that solution. In this instance the terms concentration and dose are synonymous.
Thus, appropriate doses were a range of at least three consecutive doses from the above series of concentrations which it was estimated would induce a range of prothrombin time elevations between 0 to 100% such that a dose-response curve could be constructed for that analogue.
The doses were injected into test animals (200 to 250 g Wistar-strain male rats) by the interperitoneal route. Three days after injection, blood was withdrawn by cardiac puncture whilst the animals were held under "Halothane" anaesthesia.
Three rats were used in each test of a particular compound and three prothrombin time determinations were carried out on each blood sample. Prothrombin times were determined using the modified one-step method of Quick. The percentage extension time of each prothrombin time was determined by assigning 0% extension time to an arbitrary prothrombin resting time of 12 seconds, and 100% extension time to a prothrombin time elevated to an arbitrary 212 seconds. Results were plotted on log-probability graph paper, the best-line fitted, and the prothrombin time ED50 read from the graph.

test animal (rat) = assay: Acute oral LD50; assay type: in vivo; details: polyethylene glycol 200/triethanolamine 9:1 w/w
Experimental: For some compounds, LD50 data has also been generated, as follows.
Compounds were dissolved in a mixture of polyethylene glycol 200 and triethanolamine (9:1 w/w) and serially diluted with the same solvent system to given concentrations of: 10.0, 4.64, 2.15, 1.00, 0.464, 0.215, 0.10, milligrammes per milliliter (mgml^-1).
As these concentrations represent a known number of milligrammes per milliliter, administration of any solution to the test animal at the rate of 1 milliliter per 1 kilogramme of bodyweight delivers a dose (in mgkg^-1) numerically equivalent to the concentration of that solution.
Thus appropriate doses were a range of four consecutive oral doses from the series of concentration sufficient to cause low group mortality at the lowest dose, and high group mortality at the highest dose. Acute oral LD50 's were then determined by reference to the tables in Horns' paper "Simplified LD50 (or ED50) Calculations", Biometrics, 12, 311-322.

[1] = prothrombin time ED50, single intraperitoneal injection, male Wistar rats, blood taken three days after injection, 0% = 12 s, 100% = 212 s

SMILES	ED50 (prothrombin time; [1]) [mg/kg]	LD50 (test animal (rat)) [mg/kg]	ED50 (prothrombin time) [mg/kg]
O=c1oc2ccccc2c(O)c1C1CC(c2ccc(Cc3ccc(-c4ccccc4)cc3)cc2)Cc2ccccc21 (stereo not drawn) [Example 10, 3-{3-[4-(biphenyl-4-ylmethyl)phenyl]-1,2,3,4-tetrahydro-1-naphthyl}-4-hydroxycoumarin]	0.52	–	–
N#Cc1ccc(COc2ccc(-c3ccc(C4Cc5ccccc5C(c5c(O)c6ccccc6oc5=O)C4)cc3)cc2)cc1 (stereo not drawn) [Example 2, 3-{3-[4'-(4-cyanobenzyloxy)biphenyl-4-yl]-1,2,3,4-tetrahydro-1-naphthyl}-4-hydroxycoumarin]	1.6	–	–
O=c1oc2ccccc2c(O)c1C1CC(c2ccc(OCc3ccc(-c4ccc(-c5ccccc5)cc4)cc3)cc2)Cc2ccccc21 (stereo not drawn) [Example 9, 3-{3-[4-(4-biphenyl-4-ylbenzyloxy)phenyl]-1,2,3,4-tetrahydro-1-naphthyl}-4-hydroxycoumarin]	0.49	–	–
O=c1oc2ccccc2c(O)c1C1CC(c2ccc(-c3ccc(OCc4ccc(Br)cc4)cc3)cc2)Cc2ccccc21 (stereo not drawn) [Example 3, 3-{3-[4'-(4-bromobenzyloxy)biphenyl-4-yl]-1,2,3,4-tetrahydro-1-naphthyl}-4-hydroxycoumarin]	0.74	0.4 to 1.0	–
CC(=O)CC(c1ccccc1)c1c(O)c2ccccc2oc1=O (stereo not drawn) [Warfarin, 3-(α-acetonylbenzyl)-4-hydroxycoumarin, reference compound]	5.2	–	–
O=c1oc2ccccc2c(O)c1C1CC(c2ccc(OCc3ccc(-c4ccccc4)cc3)cc2)Cc2ccccc21 (stereo not drawn) [Example 5, 3-{3-[4-(4-phenylbenzyloxy)phenyl]-1,2,3,4-tetrahydro-1-naphthyl}-4-hydroxycoumarin]	0.4	0.4 to 1.0	–
O=c1oc2ccccc2c(O)c1C1CC(c2ccc(-c3ccc(-c4ccccc4)cc3)cc2)Cc2ccccc21 (stereo not drawn) [Example 4, 3-[3-(4'-terphenyl-4-yl)-1,2,3,4-tetrahydro-1-naphthyl]-4-hydroxycoumarin]	0.55	1.0	–
O=c1oc2ccccc2c(O)c1C1CC(c2ccc(Oc3ccc(-c4ccc(Cl)cc4)cc3)cc2)Cc2ccccc21 (stereo not drawn) [Example 7, 3-{3-[4-(4'-chlorobiphenyl-4-yloxy)phenyl]-1,2,3,4-tetrahydro-1-naphthyl}-4-hydroxycoumarin]	0.36	–	–
O=c1oc2ccccc2c(O)c1C1CC(c2ccc(-c3ccc(OCc4ccc(C(F)(F)F)cc4)cc3)cc2)Cc2ccccc21 (stereo not drawn) [Example 1, 3-{3-[4'-(4-trifluoromethylbenzyloxy)biphenyl-4-yl]-1,2,3,4-tetrahydro-1-naphthyl}-4-hydroxycoumarin]	0.4	0.32 to 0.4	–
O=c1oc2ccccc2c(O)c1C1CC(c2ccc(Oc3ccc(-c4ccccc4)cc3)cc2)Cc2ccccc21 (stereo not drawn) [Example 11, 3-{3-[4-(biphenyl-4-yloxy)phenyl]-1,2,3,4-tetrahydro-1-naphthyl}-4-hydroxycoumarin]	0.55	–	–
O=c1oc2ccccc2c(O)c1C1CC(c2ccc(Cc3ccc(-c4ccc(Br)cc4)cc3)cc2)Cc2ccccc21 (stereo not drawn) [Example 8, 3-{3-[4-(4'-bromobiphenyl-4-ylmethyl)phenyl]-1,2,3,4-tetrahydro-1-naphthyl}-4-hydroxycoumarin]	0.37	–	–
O=c1oc2ccccc2c(O)c1C1CC(c2ccc(OCc3ccc(-c4ccc(Br)cc4)cc3)cc2)Cc2ccccc21 (stereo not drawn) [Example 6, 3-{3-[4-(4'-bromobiphenyl-4-ylmethoxy)phenyl]-1,2,3,4-tetrahydro-1-naphthyl}-4-hydroxycoumarin]	0.72	–	–
O=c1oc2ccccc2c(O)c1C1CC(c2ccc(-c3ccccc3)cc2)Cc2ccccc21 (stereo not drawn) [Difenacoum, reference compound]	–	1.80	0.56
